Measured values published in PMC2263054, “Functional evolution of the vitamin D and pregnane X receptors” (BMC Evolutionary Biology, 2007).
Where two headings read alike, the source gives them in different places.

Assays:
Type in all cases: cell-based
Details in all cases: screening for activators, at least three concentrations of each drug
Xenopus laevis VDR = molecular target: T1, Xenopus laevis VDR (Xenopus laevis, UniProt O13124); test: luciferase reporter transactivation assay in HepG2-NTCP cells, GAL4/xlVDR LBD chimera with tk-UAS-Luc
T1 sequence (O13124 90-422): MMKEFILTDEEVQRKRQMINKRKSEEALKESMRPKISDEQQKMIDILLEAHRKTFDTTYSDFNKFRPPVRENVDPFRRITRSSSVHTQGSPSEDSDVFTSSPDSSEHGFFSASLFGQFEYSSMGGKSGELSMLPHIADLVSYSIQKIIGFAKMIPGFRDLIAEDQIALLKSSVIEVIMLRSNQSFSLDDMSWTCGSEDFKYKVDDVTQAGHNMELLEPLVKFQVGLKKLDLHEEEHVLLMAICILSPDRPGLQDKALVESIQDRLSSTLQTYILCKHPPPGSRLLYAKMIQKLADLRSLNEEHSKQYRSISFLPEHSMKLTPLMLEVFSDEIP

Sea lamprey VDR = molecular target: T2, Sea lamprey VDR (Petromyzon marinus, UniProt Q7ZZY9)
T2 sequence (Q7ZZY9 92-406): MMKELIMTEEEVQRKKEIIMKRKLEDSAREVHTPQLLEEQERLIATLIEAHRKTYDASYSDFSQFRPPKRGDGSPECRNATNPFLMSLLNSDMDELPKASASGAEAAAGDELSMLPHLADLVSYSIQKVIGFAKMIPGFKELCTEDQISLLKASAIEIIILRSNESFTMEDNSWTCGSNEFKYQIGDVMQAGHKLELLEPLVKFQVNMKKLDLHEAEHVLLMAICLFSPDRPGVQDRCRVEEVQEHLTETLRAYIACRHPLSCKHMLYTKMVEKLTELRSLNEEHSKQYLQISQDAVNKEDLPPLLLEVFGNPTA

Zebrafish VDR = molecular target: T3, Zebrafish VDR (Danio rerio, UniProt Q9PTN2); test: luciferase reporter transactivation assay in HepG2-NTCP cells, GAL4/zfVDR LBD chimera with tk-UAS-Luc
T3 sequence (Q9PTN2 121-453): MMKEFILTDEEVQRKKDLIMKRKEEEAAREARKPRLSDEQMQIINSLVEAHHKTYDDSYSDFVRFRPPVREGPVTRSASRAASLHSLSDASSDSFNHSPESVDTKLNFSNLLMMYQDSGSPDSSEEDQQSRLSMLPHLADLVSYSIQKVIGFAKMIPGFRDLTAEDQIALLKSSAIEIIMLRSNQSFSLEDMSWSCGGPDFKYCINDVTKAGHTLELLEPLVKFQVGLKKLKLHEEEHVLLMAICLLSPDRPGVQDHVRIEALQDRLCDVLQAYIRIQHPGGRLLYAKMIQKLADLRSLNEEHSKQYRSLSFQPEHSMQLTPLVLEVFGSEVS

| SMILES | Effect on Xenopus laevis VDR (Xenopus laevis VDR) | Effect on sea lamprey VDR (Sea lamprey VDR) | Effect on zebrafish VDR (Zebrafish VDR) | Effect on Xenopus laevis VDR (Xenopus laevis VDR; listed as 17β-estradiol) | Effect on sea lamprey VDR (Sea lamprey VDR; listed as 17β-estradiol) | Effect on zebrafish VDR (Zebrafish VDR; listed as 17β-estradiol) |
| --- | --- | --- | --- | --- | --- | --- |
| C[C@H](CCC(=O)O)[C@H]1CC[C@H]2[C@@H]3C(=O)C[C@@H]4C[C@H](O)CC[C@]4(C)[C@H]3CC(=O)[C@]12C [7,12-Diketolithocholic acid] | No effect | No effect | No effect | – | – | – |
| C[C@H](CCC(=O)O)[C@H]1CC[C@H]2[C@@H]3C(=O)C[C@@H]4C[C@H](O)CC[C@]4(C)[C@H]3C[C@H](O)[C@]12C [7-Ketodeoxycholic acid] | No effect | No effect | No effect | – | – | – |
| C[C@H](CCC(=O)O)[C@H]1CC[C@H]2[C@@H]3C(=O)C[C@@H]4C[C@H](O)CC[C@]4(C)[C@H]3CC[C@]12C [7-Ketolithocholic acid] | No effect | No effect | No effect | – | – | – |
| CC1=C(/C=C/C(C)=C\C=C\C(C)=C\C(=O)O)C(C)(C)CCC1 [9-cis Retinoic acid] | No effect | No effect | No effect | – | – | – |
| C[C@H](CCC(=O)O)[C@H]1CC[C@H]2[C@@H]3CC[C@@H]4C[C@H](O)CC[C@]4(C)[C@H]3CC(=O)[C@]12C [12-Ketolithocholic acid] | No effect | No effect | No effect | – | – | – |
| CCCCC[C@H](O)/C=C/C=C\CCCCCCCC(=O)O [13(S)-Hydroxy-9Z,11E-octadecadienoic acid] | No effect | No effect | No effect | – | – | – |
| CC1=C(/C=C/C(C)=C/C=C/C(C)=C\C(=O)O)C(C)(C)CCC1 [13-cis Retinoic acid] | No effect | No effect | No effect | – | – | – |
| CC1=C(/C=C/C(C)=C/C=C/C(C)=C\CO)C(C)(C)CCC1 [13-cis-Retinol] | No effect | No effect | No effect | – | – | – |
| CCCCC/C=C/C=C1/C(=O)C=C[C@@H]1C/C=C\CCCC(=O)O [15-Deoxy-D12,14-prostaglandin J2] | No effect | No effect | No effect | – | – | – |
| C[C@]12CCC(=O)C[C@@H]1CC[C@@H]1[C@@H]2CC[C@]2(C)C=CC[C@@H]12 [16,(5a)-Androsten-3-one] | No effect | No effect | No effect | – | – | – |
| C[C@]12CC[C@H](O)C[C@@H]1CC[C@@H]1[C@@H]2CC[C@]2(C)C=CC[C@@H]12 [16,(5a)-Androsten-3b-ol] | No effect | No effect | No effect | – | – | – |
| C[C@]12CC[C@@H]3c4ccc(O)cc4CC[C@H]3[C@@H]1C[C@@H](O)C2=O [16a-Hydroxyestrone] | No effect | No effect | No effect | – | – | – |
| CC(=O)[C@@]1(O)CC[C@H]2[C@@H]3CC=C4C[C@@H](O)CC[C@]4(C)[C@H]3CC[C@@]21C [17-Hydroxypregnenolone] | No effect | No effect | No effect | – | – | – |
| C[C@]12CC[C@@H]3c4ccc(O)cc4CC[C@H]3[C@@H]1CC[C@@H]2O [17b-Estradiol, 17β-estradiol] | No effect | No effect | No effect | None of these three VDRs were activated | None of these three VDRs were activated | None of these three VDRs were activated |
| C[C@H](CC(=O)O)[C@H]1CC[C@H]2[C@@H]3CC[C@@H]4C[C@H](O)CC[C@]4(C)[C@H]3C[C@H](O)[C@]12C [23-Nordeoxycholic acid] | No effect | No effect | No effect | – | – | – |
| C[C@H](CC[C@@H]1OC1(C)C)[C@H]1CC[C@H]2[C@@H]3CC=C4C[C@@H](O)CC[C@]4(C)[C@H]3CC[C@]12C [24(S)-,25-Epoxycholesterol] | No effect | No effect | No effect | – | – | – |
| CC(C)[C@@H](O)CC[C@@H](C)[C@H]1CC[C@H]2[C@@H]3CC=C4C[C@@H](O)CC[C@]4(C)[C@H]3CC[C@]12C [24(S)-Hydroxycholesterol] | No effect | No effect | No effect | – | – | – |
| CC(=O)N[C@@H](CSC/C=C(\C)CC/C=C(\C)CCC=C(C)C)C(=O)O [Acetyl-farnesyl-cysteine] | No effect | No effect | No effect | – | – | – |
| CC(=O)N[C@@H](CSC/C=C(\C)CCC=C(C)C)C(=O)O [Acetyl-geranyl-cysteine] | No effect | No effect | No effect | – | – | – |
| CC(=O)N[C@@H](CSC/C=C(\C)CC/C=C(\C)CC/C=C(\C)CCC=C(C)C)C(=O)O [Acetyl-geranylgeranyl-cysteine] | No effect | No effect | No effect | – | – | – |
| COc1cc(C)c(/C=C/C(C)=C/C=C/C(C)=C/C(=O)O)c(C)c1C [Aciretin] | No effect | No effect | No effect | – | – | – |
| C[C@]12CCC(=O)C=C1CC[C@@H]1[C@@H]2[C@@H](O)C[C@]2(C=O)[C@@H](C(=O)CO)CC[C@@H]12 [Aldosterone] | No effect | No effect | No effect | – | – | – |
| CC1=C(/C=C/C(C)=C/C=C/C(C)=C/C(=O)O)C(C)(C)CCC1 [All trans retinoic acid] | No effect | No effect | No effect | – | – | – |
| C[C@H](CCC(=O)O)[C@H]1CC[C@H]2[C@@H]3[C@H](O)C[C@H]4C[C@H](O)CC[C@]4(C)[C@H]3C[C@H](O)[C@]12C [Allocholic acid] | No effect | No effect | No effect | – | – | – |
| Cc1c(C)c2c(c(C)c1O)CC[C@@](C)(CCC[C@H](C)CCC[C@H](C)CCCC(C)C)O2 [Alpha-tocopherol] | No effect | No effect | No effect | – | – | – |
| C[C@]12CC[C@@H](O)C[C@@H]1CC[C@@H]1[C@@H]2CC[C@]2(C)C(=O)CC[C@@H]12 [Androsterone] | No effect | No effect | No effect | – | – | – |
| CC(C)(c1ccc(OCC2CO2)cc1)c1ccc(OCC2CO2)cc1 (stereo not drawn) [BADGE] | No effect | No effect | No effect | – | – | – |
| CC1=C(/C=C/C(C)=C/C=C/C(C)=C/C=C/C=C(C)/C=C/C=C(C)/C=C/C2=C(C)CCCC2(C)C)C(C)(C)CCC1 [Beta-carotene] | No effect | No effect | No effect | – | – | – |
